The subject of test [1] is patients with essential blepharospasm. Kind of test: Blink rate before and immediately after placement of a scleral contact lens with fluorescein dye in the fluid reservoir. In kind it is in vivo, human. The note with it: immediately after placement of scleral lens with saline mixed with fluorescein dye. On the procedure:
(§1) All patients in the study have an established diagnosis of essential blepharospasm currently managed with botulinum toxin injections. Prior to treatment with the fluorescein dye, patients are evaluated for their blink rate as determined by the number of blinks per minute. Patients are also evaluated using the Jankovic rating scale which has 2 components: 1. The severity of the eyelid spasms are rated from 0-4 (0=no spasms, 4=severe incapacitating spasms) and, 2. The frequency of spasms are rated from 0-4 (0=no spasms, 4=persistent eye closure). The sum of the severity score and the frequency score is then computed. Patients are then fitted with a scleral contact lens with normal saline solution mixed with fluorescein dye placed in the fluid reservoir. The blink rate and JRS sum score are then assessed immediately after placement of the lens.

The test system is the same in test [2]. Briefly: Jankovic rating scale (JRS) sum score, severity plus frequency of eyelid spasms, before and immediately after lens placement. In kind it is in vivo, human. Conditions: sum of severity (0-4) and frequency (0-4) scores immediately after lens placement. The method, then: as §1

The structures appear in SMILES notation.

On to `O=C1OC2(c3ccc(O)cc3Oc3cc(O)ccc32)c2ccccc21` [fluorescein], for which the Post blink-rate is 10 blinks per minute in test [1] (Patient 1, pre blink-rate 80); 20 blinks per minute in test [1] (Patient 2, pre blink-rate 50); 40 blinks per minute in test [1] (Patient 3, pre blink-rate 60); 35 blinks per minute in test [1] (Patient 4, pre blink-rate 70); 49 blinks per minute in test [1] (Patient 5, pre blink-rate 70). Also, the “Post JRS” value is 1 in test [2] (Patient 1, pre JRS 7); 3 in test [2] (Patient 2, pre JRS 6); 4 in test [2] (Patient 3, pre JRS 6); 4 in test [2] (Patient 4, pre JRS 7); 3 in test [2] (Patient 5, pre JRS 7).

The record behind these values is US20190350895A1, “PHOTOCHROMATIC MODULATION WITH FLUORESCEIN FOR THE TREATMENT OF PHOTO-OCULODYNIA AND BLEPHAROSPASM” (Baylor College of Medicine, priority 2016, published 2019).
